According to patent publication US5955092A, “Skin care compositions containing an n-substituted fatty acid amide and retinol or retinyl ester” (Elizabeth Arden Co., Division of Conopco, Inc., priority 1996, dated 1999):
Read-outs that look alike come from different tables or passages of the source.

Legend:
LRAT = molecular target: T1, LRAT (Bos taurus, UniProt Q9BGL2); assay: In vitro Microsomal Esterification of Retinol, LRAT catalyzed; type: biochemical, bovine; conditions: 1 hour at 37° C., pH 7
T1 construct: microsomal fraction isolated from bovine retinal pigment epithelial cells; from tissue; host or cells: microsomes of bovine retinal pigment epithelial cells
T1 sequence (Q9BGL2 1-230): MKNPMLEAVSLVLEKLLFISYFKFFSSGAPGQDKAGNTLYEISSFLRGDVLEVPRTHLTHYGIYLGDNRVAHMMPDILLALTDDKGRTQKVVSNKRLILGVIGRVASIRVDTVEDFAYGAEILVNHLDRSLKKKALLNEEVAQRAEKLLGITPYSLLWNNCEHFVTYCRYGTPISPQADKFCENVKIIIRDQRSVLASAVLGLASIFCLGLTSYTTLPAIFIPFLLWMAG
Method: (§1) Microsomes are obtained as described in: J. C. Saari and D. L. Bredberg, "CoA and Non-CoA Dependent Retinol Esterification in Retinal Figment Epithelium" J. Biol. Chem. 263, 8084-90 (1988).
(§2) A solution containing 0.1M sodium phosphate pH 7 buffer, 5 mM dithiothreitol, 2 mg/ml bovine serum albumin, 40 micromolar palmitoyl CoA, 40 micromolar dilauroyl phosphatidyl choline, 10 micromolar retinol and a test compound or a solvent blank, is incubated for 1 hour at 37° C. with a microsomal fraction isolated from bovine retinal pigment epithelial cells. After incubation, the reaction was quenched by addition of an equal volume of ethanol, and the retinyl esters formed (retinyl laurate from the LRAT catalyzed reaction and retinyl palmitate from ARAT catalyzed reaction) are extracted with hexane. The hexane layer is removed, evaporated under nitrogen, and the residue analyzed by HPLC on a 3.9×300 mm C18 reversed phase column using a 80% methanol in tetrahydrofuran mobile phase and fluorescence detection (325 nm excitation, 480 nm emission) to quantitate the retinyl ester. The quantity of ester formed in the presence of the solvent blank is taken as 100%, and this is used to calculate the percent inhibition of ester formation for the compounds tested. As a control, an aliquot of microsomes is inactivated by boiling for 5 minutes, which results in at least 95% inhibition of ester formation. […]

ARAT = assay: In vitro Microsomal Esterification of Retinol, ARAT catalyzed; type: biochemical, bovine; conditions: 100 μM; 1 hour at 37° C.; pH 7
Method: as §1, §2

[1] = tested on: Human keratinocytes (TGase I); assay: Transglutaminase (TGase I) ELISA in cultured keratinocytes, normalized to DNA (Example 3); type: cell-based; conditions: for mean TGase/DNA × 10^5 ± s.d: Control 57.80 ± 8.61; for activity at 0.25 µM: Homo sapiens, Keratinocyte, read-out: mean TGase/DNA (% control)
Method: Human keratinocytes, isolated from neonatal foreskin by trypsin treatment were grown in Dulbecco Modification Eagle (DME) Hams F12 (1:1) medium/10% fetal calf serum in the presence of irradiated 3T3 mouse fibroblasts for establishing dividing keratinocyte colonies. Cells were grown under the above condition until their second passage and kept frozen for future use. […] On day 7, when the cells were 80-90% confluent, they were trypsinized and plated in the serum-free medium for the various experiments.
(§3) During the process of terminal differentiation in the epidermis, a 15 nm thick layer of protein, known as the cornified envelope (CE) is formed on the inner surface of the cell periphery. The CE is composed of numerous distinct proteins which have been cross-linked together by the formation of N^ε -(γ-glutamyl) lysine isodipeptide bonds catalyzed by the action of at least two different transglutaminases (TGases) expressed in the epidermis. TGase I is expressed in abundance in the differentiated layers of the epidermis, especially the granular layer, but is absent in the undifferentiated basal epidermis. Thus TGase I is a useful marker of epidermal keratinocyte differentiation with high TGase I levels indicating a more differentiated state. An ELISA based TGase I assay, using a TGase I antibody, was used to assess the state of differentiation of the cultured keratinocytes in the examples that follow.
Keratinocytes (cultured as described above) were plated in 96 well plates at a density of 3,000 cells per well in 200 μl of cell culture media. After incubation for four days, the media was changed to media containing test compounds (six replicates per test). The cells were cultured for a further 72 hours after which time the media was aspirated and the plates stored at -70° C. After the plates were removed from the freezer, the cells were further freezed fractured by freezing and thawing and then washed 3× with PBS. The cells were incubated for one hour at room temperature (R/T) with TBS/5% BSA buffer. Cells were then incubated with 100 μl of monoclonal anti-human transglutaminase (IgG) mouse antibody (primary antibody) obtained from Biomedical Technologies Inc. diluted 1:2000 in TBS/1% BSA buffer for two hours at 37° C., and then rinsed six times with wash buffer (TBS/1% BSA/0.05% Tween-20). Cells were next incubated with 100 μl of Fab fragment, peroxidase conjugated anti-mouse IgG antibody (secondary antibody) from Amersham diluted 1:4,000 in wash buffer for two hours at 37° C. and then rinsed three times with wash buffer and three times with PBS. Cells were incubated with substrate solution (4 mg o-phenylene diamine and 3.3 μl 30% H2 O2 in 10 mL 0.1M citrate buffer, pH 5.0) for five minutes at R/T and in darkness (under aluminum foil). […] The absorbance of samples was read at 492 nm in the plate reader. […] Transglutaminase I levels were determined by subtracted background from the readings from each treatment and determining the mean s.d. for the replicates exposed to both antibodies.
The level of TGase-1 was normalized to DNA content of the cells in the same well thus eliminating variation due to differences in cell number. DNA quantitation is a particularly useful indicator of cell number, including keratinocyte cell number, because each cell has to all intents and purposes an identical genome and therefore an identical quantity of DNA. […] Quantitation of DNA was used to normalize the TGase data to cell number. […]

[2] = tested on: Human keratinocytes (TGase I); assay: Transglutaminase (TGase I) ELISA in cultured keratinocytes, normalized to DNA (Example 1); type: cell-based; conditions: for dose dependence of decrease in transglutaminase level: 2.5×10^-7 M to 2.5×10^-9 M; for mean TGase/DNA × 10^-4 ± s.d: 72 hours, n = 3, Control 2.44 ± 0.24
Method: Human keratinocytes, isolated from neonatal foreskin by trypsin treatment were grown in Dulbecco Modification Eagle (DME) Hams F12 (1:1) medium/10% fetal calf serum in the presence of irradiated 3T3 mouse fibroblasts for establishing dividing keratinocyte colonies. Cells were grown under the above condition until their second passage and kept frozen for future use. Frozen second passage keratinocytes were thawed and plated into the above medium and grown for five days before they were switched to a serum-free MCDB 153-based medium keratinocyte growth medium (KGM) from Clonetics Corporation, San Diego, Calif., containing 0.15 mM Ca, or keratinocyte serum-free media (KSFM) from GIBCO containing 0.09 mM Ca). On day 7, when the cells were 80-90% confluent, they were trypsinized and plated in the serum-free medium for the various experiments.
as §3
For Example 1, the following procedure was used:
Keratinocytes (cultured as described above) were plated in 96 well plates at a density of 3,000 cells per well in 200 μl media. After incubation for four days the media was changed to media containing test compounds (six replicates per test). The cells were cultured for a further 72 hours after which time the media was aspirated and the plates stored at -70° C. Plates were removed from the freezer, and the cells washed with PBS. 100 μl sterile water was added and the cells were freeze fractured by freezing at -70° C. then thawing. The cells were incubated for one hour at room temperature (R/T) with PBS/3% BSA (wash buffer, bovine serum albumin), then rinsed with a fresh aliquot of wash buffer. Cells were incubated with 50 μl of primary antibodies monoclonal anti-human transglutaminase mouse antibody (IgG) obtained from Biomedical Industries diluted 1:2,000 in wash buffer for one hour, 37° C. then rinsed two times with wash buffer. Cells were then incubated with 50 μl of secondary antibody (Fab fragment, peroxidase conjugated anti-mouse IgG obtaining from Amersham) diluted 1:4,000 in wash buffer for one hour at 37° C., then rinsed two times with wash buffer. Cells were incubated with substrate solution (4 mg o-phenylene diamine and 3.3 μl 30% H2 O2 in 10 ml 0.1 M citrate buffer pH 5.0) for five minutes, R/T, in darkness (under aluminum foil). The reaction was stopped by the addition of 50 μl 4N H2 SO4. The absorbance of samples was read at 492 nm in the plate reader. Out of the six replicates, four were treated with both antibodies, two were treated only with the secondary antibody (i.e., to determine background binding of enzyme conjugated Ab). TGase levels were determined by subtracting background from the readings from each treatment and determining mean±s.d. for the replicates exposed to both Ab.
The level of TGase-1 detected after treatment of the cells could be influenced by cell number, i.e., the greater the number of cells the greater the level of TGase-1 detected. The level of TGase-1 was normalized to DNA content of the cells in the same well thus eliminating variation due to differences in cell number. […]

Row | inhibition at 100 µM (LRAT) | inhibition of keratinocyte TG1 level when used alone (in words) ([1]; 2.5×10^-7 M retinol, 10^-4 M Formula A, used alone, compared with 2.5×10^-7 M retinoic acid) | SMILES | % INHIBITION, ARAT (ARAT) | mean TGase/DNA × 10^5 ± s.d ([1]; 2.5 × 10^-7 M, 72 hours, n = 3) | activity at 0.25 µM ([1]; 2.5 × 10^-7 M, 72 hours, n = 3) | dose dependence of decrease in transglutaminase level [2] | mean TGase/DNA × 10^-4 ± s.d ([2]; 2.5 × 10^-7 M) | mean TGase/DNA × 10^-4 ± s.d ([2]; 2.5 × 10^-8 M) | mean TGase/DNA × 10^-4 ± s.d ([2]; 2.5 × 10^-9 M) | activity at 0.25 µM ([1]; 72 h) | decrease of keratinocyte differentiation compared with corresponding retinol treatments ([2]; 2.5×10^-7 M, 2.5×10^-8 M and 2.5×10^-9 M, vs retinol at same concentration) | effect on keratinocyte differentiation vs ethanol control ([2]; all concentrations tested: 2.5×10^-7 M, 2.5×10^-8 M and 2.5×10^-9 M)
1 | 0% |  | CCCCCCCC(=O)NC(COC)COC [Formula C] | 0% |  |  |  |  |  |  |  |  | 
2 |  | less effective | CC1=C(/C=C/C(C)=C/C=C/C(C)=C/CO)C(C)(C)CCC1 [Retinol] |  | 45.60 ± 3.92 × 10^5 | 79% | dose dependent | 1.14 ± 0.22 × 10^-4 | 1.89 ± 0.30 × 10^-4 | 2.70 ± 0.59 × 10^-4 |  |  | 
3 |  |  | CC1=C(/C=C/C(C)=C/C=C/C(C)=C/C(=O)O)C(C)(C)CCC1 [Retinoic acid] |  | 39.99 ± 5.28 × 10^5 |  | dose dependent |  |  |  | 69% | significantly greater extent | decreased keratinocyte differentiation
